Key:
Test in all cases: relative viability (nuclei count vs DMSO), 5 days (fraction); higher = more cells survive
COR-L 105 = test system: COR-L 105
How it was run: (§1)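 After 5 days of treatment, lung cancer cells in 1536-well plates were fixed and stained in a single step (final 0.05% Triton X-100, 1% formaldehyde, 1 ug/ml Hoechst) and their nuclei counted on 4× images. Treatment had been applied by pin tool the day after seeding as one drug alone or as a fixed anchor-drug dose with five library-drug doses (not always all listed) in √10 steps. Relative viability is the nuclei count of treated wells divided by that of vehicle wells, and values are medians of duplicate plates.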

COR-L23 = test system: COR-L23
How it was run: as §1

HARA = test system: HARA
How it was run: as §1

HCC-15 = test system: HCC-15
How it was run: as §1

HOP-62 = test system: HOP-62
How it was run: as §1

NCI-H1355 = test system: NCI-H1355
How it was run: as §1

NCI-H1734 = test system: NCI-H1734
How it was run: as §1

NCI-H1755 = test system: NCI-H1755
How it was run: as §1

NCI-H1792 = test system: NCI-H1792
How it was run: as §1

NCI-H1993 = test system: NCI-H1993
How it was run: as §1

NCI-H2009 = test system: NCI-H2009
How it was run: as §1

NCI-H2228 = test system: NCI-H2228
How it was run: as §1

NCI-H2347 = test system: NCI-H2347
How it was run: as §1

NCI-H647 = test system: NCI-H647
How it was run: as §1

NCI-H838 = test system: NCI-H838
How it was run: as §1

UMC-11 = test system: UMC-11
How it was run: as §1

## O=c1cc(N2CCOCC2)oc2c(-c3cccc4c3sc3ccccc34)cccc12 + CC(C)C[C@H](NC(=O)[C@H](Cc1ccccc1)NC(=O)c1cnccn1)B(O)O [Bortezomib] (partner 0.002 µM)
COR-L 105; first compound 0.01 µM
  relative viability: 0.793
COR-L 105; first compound 0.03162 µM
  relative viability: 0.793
COR-L 105; first compound 0.1 µM
  relative viability: 0.769
COR-L 105; first compound 0.3162 µM
  relative viability: 0.895
COR-L 105; first compound 1 µM
  relative viability: 0.807
COR-L23; first compound 0.01 µM
  relative viability: 1.03
COR-L23; first compound 0.03162 µM
  relative viability: 1
COR-L23; first compound 0.1 µM
  relative viability: 1.09
COR-L23; first compound 0.3162 µM
  relative viability: 0.904
COR-L23; first compound 1 µM
  relative viability: 1.03
HARA; first compound 0.01 µM
  relative viability: 1.16
HARA; first compound 0.03162 µM
  relative viability: 1.17
HARA; first compound 0.1 µM
  relative viability: 1.19
HARA; first compound 0.3162 µM
  relative viability: 1.1
HARA; first compound 1 µM
  relative viability: 1.1
HCC-15; first compound 0.01 µM
  relative viability: 0.948
HCC-15; first compound 0.03162 µM
  relative viability: 1.06
HCC-15; first compound 0.1 µM
  relative viability: 1.12
HCC-15; first compound 0.3162 µM
  relative viability: 0.948
HCC-15; first compound 1 µM
  relative viability: 1.04
HOP-62; first compound 0.01 µM
  relative viability: 0.497
HOP-62; first compound 0.03162 µM
  relative viability: 0.565
HOP-62; first compound 0.1 µM
  relative viability: 0.963
HOP-62; first compound 0.3162 µM
  relative viability: 0.81
HOP-62; first compound 1 µM
  relative viability: 0.723
NCI-H1355; first compound 0.01 µM
  relative viability: 1.26
NCI-H1355; first compound 0.03162 µM
  relative viability: 1.15
NCI-H1355; first compound 0.3162 µM
  relative viability: 1.19
NCI-H1355; first compound 1 µM
  relative viability: 1.25
NCI-H1734; first compound 0.01 µM
  relative viability: 0.92
NCI-H1734; first compound 0.03162 µM
  relative viability: 0.808
NCI-H1734; first compound 0.1 µM
  relative viability: 1.01
NCI-H1734; first compound 0.3162 µM
  relative viability: 0.938
NCI-H1734; first compound 1 µM
  relative viability: 0.899
NCI-H1755; first compound 0.01 µM
  relative viability: 1.02
NCI-H1755; first compound 0.03162 µM
  relative viability: 0.873
NCI-H1755; first compound 0.1 µM
  relative viability: 0.959
NCI-H1755; first compound 0.3162 µM
  relative viability: 1.03
NCI-H1755; first compound 1 µM
  relative viability: 0.977
NCI-H1792; first compound 0.01 µM
  relative viability: 0.965
NCI-H1792; first compound 0.03162 µM
  relative viability: 0.912
NCI-H1792; first compound 0.1 µM
  relative viability: 0.965
NCI-H1792; first compound 0.3162 µM
  relative viability: 0.938
NCI-H1792; first compound 1 µM
  relative viability: 0.955
NCI-H1993; first compound 0.01 µM
  relative viability: 1
NCI-H1993; first compound 0.03162 µM
  relative viability: 1.09
NCI-H1993; first compound 0.1 µM
  relative viability: 1.33
NCI-H1993; first compound 0.3162 µM
  relative viability: 1.11
NCI-H1993; first compound 1 µM
  relative viability: 1.07
NCI-H2009; first compound 0.01 µM
  relative viability: 1.03
NCI-H2009; first compound 0.03162 µM
  relative viability: 1.01
NCI-H2009; first compound 0.1 µM
  relative viability: 0.89
NCI-H2009; first compound 0.3162 µM
  relative viability: 0.967
NCI-H2009; first compound 1 µM
  relative viability: 1.01
NCI-H2228; first compound 0.03162 µM
  relative viability: 0.794
NCI-H2228; first compound 0.1 µM
  relative viability: 0.926
NCI-H2228; first compound 0.3162 µM
  relative viability: 1.33
NCI-H2228; first compound 1 µM
  relative viability: 1.14
NCI-H2347; first compound 0.01 µM
  relative viability: 1.15
NCI-H2347; first compound 0.03162 µM
  relative viability: 1.12
NCI-H2347; first compound 0.1 µM
  relative viability: 0.838
NCI-H2347; first compound 0.3162 µM
  relative viability: 0.835
NCI-H2347; first compound 1 µM
  relative viability: 0.839
NCI-H647; first compound 0.01 µM
  relative viability: 1.01
NCI-H647; first compound 0.03162 µM
  relative viability: 1.1
NCI-H647; first compound 0.1 µM
  relative viability: 0.98
NCI-H647; first compound 0.3162 µM
  relative viability: 1.02
NCI-H647; first compound 1 µM
  relative viability: 0.924
NCI-H838; first compound 0.01 µM
  relative viability: 0.779
NCI-H838; first compound 0.03162 µM
  relative viability: 0.673
NCI-H838; first compound 0.1 µM
  relative viability: 0.805
NCI-H838; first compound 0.3162 µM
  relative viability: 0.813
NCI-H838; first compound 1 µM
  relative viability: 0.908
UMC-11; first compound 0.01 µM
  relative viability: 0.63
UMC-11; first compound 0.03162 µM
  relative viability: 0.505
UMC-11; first compound 0.1 µM
  relative viability: 0.72
UMC-11; first compound 0.3162 µM
  relative viability: 0.736
UMC-11; first compound 1 µM
  relative viability: 0.728

## O=c1cc(-c2cccc3c2Sc2ccccc2S3)oc(N2CCOCC2)c1 + CC(C)C[C@H](NC(=O)[C@H](Cc1ccccc1)NC(=O)c1cnccn1)B(O)O [Bortezomib] (partner 0.002 µM)
COR-L 105; first compound 0.08 µM
  relative viability: 0.669
COR-L 105; first compound 0.253 µM
  relative viability: 0.715
COR-L 105; first compound 0.8 µM
  relative viability: 0.741
COR-L 105; first compound 2.53 µM
  relative viability: 0.795
COR-L 105; first compound 8 µM
  relative viability: 0.733
COR-L23; first compound 0.08 µM
  relative viability: 1.13
COR-L23; first compound 0.253 µM
  relative viability: 1.49
COR-L23; first compound 0.8 µM
  relative viability: 1.2
COR-L23; first compound 2.53 µM
  relative viability: 1
COR-L23; first compound 8 µM
  relative viability: 1.48
HARA; first compound 0.08 µM
  relative viability: 1.09
HARA; first compound 0.253 µM
  relative viability: 1.37
HARA; first compound 0.8 µM
  relative viability: 0.926
HARA; first compound 2.53 µM
  relative viability: 0.921
HARA; first compound 8 µM
  relative viability: 1.24
HCC-15; first compound 0.08 µM
  relative viability: 1.07
HCC-15; first compound 0.253 µM
  relative viability: 1.27
HCC-15; first compound 0.8 µM
  relative viability: 1.22
HCC-15; first compound 2.53 µM
  relative viability: 1
HCC-15; first compound 8 µM
  relative viability: 1.16
HOP-62; first compound 0.08 µM
  relative viability: 0.734
HOP-62; first compound 0.253 µM
  relative viability: 1.27
HOP-62; first compound 0.8 µM
  relative viability: 0.735
HOP-62; first compound 2.53 µM
  relative viability: 0.713
HOP-62; first compound 8 µM
  relative viability: 1.08
NCI-H1355; first compound 0.08 µM
  relative viability: 1.25
NCI-H1355; first compound 0.253 µM
  relative viability: 1.35
NCI-H1355; first compound 0.8 µM
  relative viability: 1.22
NCI-H1355; first compound 2.53 µM
  relative viability: 1.16
NCI-H1355; first compound 8 µM
  relative viability: 1.3
NCI-H1734; first compound 0.08 µM
  relative viability: 0.865
NCI-H1734; first compound 0.253 µM
  relative viability: 1.06
NCI-H1734; first compound 0.8 µM
  relative viability: 1.05
NCI-H1734; first compound 2.53 µM
  relative viability: 0.844
NCI-H1734; first compound 8 µM
  relative viability: 1.18
NCI-H1755; first compound 0.08 µM
  relative viability: 0.973
NCI-H1755; first compound 0.253 µM
  relative viability: 1.09
NCI-H1755; first compound 0.8 µM
  relative viability: 1.01
NCI-H1755; first compound 2.53 µM
  relative viability: 1.01
NCI-H1755; first compound 8 µM
  relative viability: 0.941
NCI-H1792; first compound 0.253 µM
  relative viability: 1.4
NCI-H1792; first compound 0.8 µM
  relative viability: 1.05
NCI-H1792; first compound 2.53 µM
  relative viability: 0.904
NCI-H1792; first compound 8 µM
  relative viability: 1.27
NCI-H1993; first compound 0.08 µM
  relative viability: 1.12
NCI-H1993; first compound 0.253 µM
  relative viability: 1.21
NCI-H1993; first compound 0.8 µM
  relative viability: 0.972
NCI-H1993; first compound 2.53 µM
  relative viability: 1.04
NCI-H1993; first compound 8 µM
  relative viability: 1.2
NCI-H2009; first compound 0.08 µM
  relative viability: 0.936
NCI-H2009; first compound 0.253 µM
  relative viability: 1.1
NCI-H2009; first compound 0.8 µM
  relative viability: 0.952
NCI-H2009; first compound 2.53 µM
  relative viability: 0.871
NCI-H2009; first compound 8 µM
  relative viability: 0.795
NCI-H2228; first compound 0.08 µM
  relative viability: 0.965
NCI-H2228; first compound 0.253 µM
  relative viability: 1.16
NCI-H2228; first compound 0.8 µM
  relative viability: 1.19
NCI-H2228; first compound 2.53 µM
  relative viability: 0.982
NCI-H2228; first compound 8 µM
  relative viability: 1.23
NCI-H2347; first compound 0.08 µM
  relative viability: 0.947
NCI-H2347; first compound 0.253 µM
  relative viability: 1.17
NCI-H2347; first compound 0.8 µM
  relative viability: 1.09
NCI-H2347; first compound 2.53 µM
  relative viability: 0.902
NCI-H2347; first compound 8 µM
  relative viability: 1.73
NCI-H647; first compound 0.08 µM
  relative viability: 0.978
NCI-H647; first compound 0.253 µM
  relative viability: 1.3
NCI-H647; first compound 0.8 µM
  relative viability: 1.04
NCI-H647; first compound 2.53 µM
  relative viability: 0.85
NCI-H647; first compound 8 µM
  relative viability: 1.57
NCI-H838; first compound 0.08 µM
  relative viability: 0.703
NCI-H838; first compound 0.253 µM
  relative viability: 1.05
NCI-H838; first compound 0.8 µM
  relative viability: 0.728
NCI-H838; first compound 2.53 µM
  relative viability: 0.693
NCI-H838; first compound 8 µM
  relative viability: 0.588
UMC-11; first compound 0.08 µM
  relative viability: 0.774
UMC-11; first compound 0.253 µM
  relative viability: 1.19
UMC-11; first compound 0.8 µM
  relative viability: 1.24
UMC-11; first compound 2.53 µM
  relative viability: 0.535
UMC-11; first compound 8 µM
  relative viability: 1.01

Reference: the supplement of paper PMC10307832
